# Measurements as given in US10189838B2, “Aza-oxo-indoles for the treatment and prophylaxis of respiratory syncytial virus infection” (Hoffmann-La Roche Inc., priority 2013, dated 2019).
# Tested on: RSV Long strain
# Test: Viral cytopathic effect (CPE) assay, RSV Long strain
# Type: cell-based, Respiratory Syncytial Virus
# Details: human respiratory syncytial virus, 144 h, cell viability after 6 days (Cell Counting kit-8)
# Procedure, shortened: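 Cells in DMEM with 10% FBS infected next day with RSV Long (A subtype) at a dose giving ~80–90% CPE after 6 days, alongside half-log compound dilutions. Viability at day 6 by CCK-8, absorbance 450 nm referenced to 630 nm; EC50 is concentration giving 50% of maximal protection.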
row,Structure (SMILES),EC50 [nM]
1,"CS(=O)(=O)CCn1c(CN2C(=O)C3(CC3)c3c(F)cccc32)nc2cc(Cl)ccc21 [Example 34-2, 1′-({5-Chloro-1-[2-(methylsulfonyl)ethyl]-1H-benzimidazol-2-yl}methyl)-4′-fluorospiro[cyclopropane-1,3′-indol]-2′(1′H)-one]",20
2,"O=C1N(Cc2cc3cc(Cl)ccc3n2CCN2CCCS2(=O)=O)c2cnccc2C12CC2 [Example 7-7, 1′-({5-Chloro-1-[2-(1,1-dioxido-1,2-thiazolidin-2-yl)ethyl]-1H-indol-2-yl}methyl)spiro[cyclopropane-1,3′-pyrrolo[2,3-c]pyridin]-2′(1′H)-one]",35
3,"CS(=O)(=O)CCCn1c(CN2C(=O)C3(CC3)c3ccncc32)cc2nc(Cl)ccc21 [Example 4-15, 1′-({5-Chloro-1-[3-(methylsulfonyl)propyl]-1H-pyrrolo[3,2-b]pyridin-2-yl}methyl)spiro[cyclopropane-1,3′-pyrrolo[2,3-c]pyridin]-2′(1′H)-one]",18
4,"CCS(=O)(=O)CCn1c(CN2C(=O)C3(CC3)c3ccncc32)cc2nc(Cl)ccc21 [Example 6, 1′-({5-Chloro-1-[2-(ethylsulfonyl)ethyl]-1H-pyrrolo[3,2-b]pyridin-2-yl}methyl)spiro[cyclopropane-1,3′-pyrrolo[2,3-c]pyridin]-2′(1′H)-one]",131
5,"CS(=O)(=O)NCCn1c(CN2C(=O)C3(CC3)c3ccncc32)cc2cc(Cl)ccc21 [Example 27-2, N-(2-{5-Chloro-2-[(2′-oxospiro[cyclopropane-1,3′-pyrrolo[2,3-c]pyridin]-1′(2′H)-yl)methyl]-1H-indol-1-yl}ethyl)methanesulfonamide]",11.5
6,"O=C1CNCCN1CCCn1c(CN2C(=O)C3(CC3)c3ccncc32)cc2cc(Cl)ccc21 [Example 24-4, 1′-({5-Chloro-1-[3-(2-oxopiperazin-1-yl)propyl]-1H-indol-2-yl}methyl)spiro[cyclopropane-1,3′-pyrrolo[2,3-c]pyridin]-2′(1′H)-one]",30
7,"O=C1N(Cc2cc3cc(Cl)cnc3n2CCC2CS(=O)(=O)C2)c2cnccc2C12CC2 [Example 12, 1′-({5-Chloro-1-[2-(1,1-dioxidothietan-3-yl)ethyl]-1H-pyrrolo[2,3-b]pyridin-2-yl}methyl)spiro[cyclopropane-1,3′-pyrrolo[2,3-c]pyridin]-2′(1′H)-one]",29
8,"CN(C)S(=O)(=O)CCCn1c(CN2C(=O)C3(CC3)c3ccncc32)cc2cc(Cl)cnc21 [Example 7-2, 3-{5-Chloro-2-[(2′-oxospiro[cyclopropane-1,3′-pyrrolo[2,3-c]pyridin]-1′(2′H)-yl)methyl]-1H-pyrrolo[2,3-b]pyridin-1-yl}-N,N-dimethylpropane-1-sulfonamide]",64
9,"O=C1N(Cc2nc3cc(Cl)cc(F)c3n2CC2COC2)c2cnccc2C12CC2 [Example 38-3, 1′-{[5-Chloro-7-fluoro-1-(oxetan-3-ylmethyl)-1H-benzimidazol-2-yl]methyl}spiro[cyclopropane-1,3′-pyrrolo[2,3-c]pyridin]-2′(1′H)-one]",30
10,"CCOC(=O)CCn1c(CN2C(=O)C3(CC3)c3ccncc32)cc2cc(Cl)cc(F)c21 [Example 13, Ethyl 3-{5-chloro-7-fluoro-2-[(2′-oxospiro[cyclopropane-1,3′-pyrrolo[2,3-c]pyridin]-1′(2′H)-yl)methyl]-1H-indol-1-yl}propanoate]",18
11,"CS(=O)(=O)CCn1c(CN2C(=O)C3(CCCC3)c3ccncc32)cc2cc(Cl)ccc21 [Example 3-2, 1′-({5-Chloro-1-[2-(methylsulfonyl)ethyl]-1H-indol-2-yl}methyl)spiro[cyclopentane-1,3′-pyrrolo[2,3-c]pyridin]-2′(1′H)-one]",290
12,"CC(=O)NCCn1c(CN2C(=O)C3(CC3)c3ccncc32)cc2cc(Cl)ccc21 [Example 26-3, N-(2-{5-Chloro-2-[(2′-oxospiro[cyclopropane-1,3′-pyrrolo[2,3-c]pyridin]-1′(2′H)-yl)methyl]-1H-indol-1-yl}ethyl)acetamide]",25
